Results as given in patent publication US10647713B2 (Nimbus Lakshmi, Inc., priority 2016, dated 2020).

These molecules were tested against human TYK2 (JH2domain-pseudokinase) (Homo sapiens (Human), UniProt P29597) (assay: TYK2 JH2 Domain Binding Assay (KINOMEscan, DiscoveRx)). Conditions: 11-point dilution, duplicate.
Description: Binding constants for compounds of the present invention against the JH2 domain were determined by the following protocol for a KINOMEscan® assay (DiscoveRx). A fusion protein of a partial length construct of human TYK2 (JH2domain-pseudokinase) (amino acids G556 to D888 based on reference sequence NP_003322.3) and the DNA binding domain of NFkB was expressed in transiently transfected HEK293 cells. From these HEK 293 cells, extracts were prepared in M-PER extraction buffer (Pierce) in the presence of Protease Inhibitor Cocktail Complete (Roche) and Phosphatase Inhibitor Cocktail Set II (Merck) per manufacturers' instructions. The TYK2 (JH2domain-pseudokinase) fusion protein was labeled with a chimeric double-stranded DNA tag containing the NFkB binding site (5′-GGGAATTCCC-3′) fused to an amplicon for qPCR readout, which was added directly to the expression extract (the final concentration of DNA-tag in the binding reaction is 0.1 nM).
Streptavidin-coated magnetic beads (Dynal M280) were treated with a biotinylated small molecule ligand for 30 minutes at room temperature to generate affinity resins the binding assays. The liganded beads were blocked with excess biotin and washed with blocking buffer (SeaBlock (Pierce), 1% BSA, 0.05% Tween 20, 1 mM DTT) to remove unbound ligand and to reduce nonspecific binding.
The binding reaction was assembled by combining 16 μl of DNA-tagged kinase extract, 3.8 μl liganded affinity beads, and 0.18 μl test compound (PBS/0.05% Tween 20/10 mM DTT/0.1% BSA/2 μg/ml sonicated salmon sperm DNA)]. Extracts were used directly in binding assays without any enzyme purification steps at a ≥10,000-fold overall stock dilution (final DNA-tagged enzyme concentration <0.1 nM). Extracts were loaded with DNA-tag and diluted into the binding reaction in a two step process. First extracts were diluted 1:100 in 1× binding buffer (PBS/0.05% Tween 20/10 mM DTT/0.1% BSA/2 μg/ml sonicated salmon sperm DNA) containing 10 nM DNA-tag. This dilution was allowed to equilibrate at room temperature for 15 minutes and then subsequently diluted 1:100 in 1× binding buffer. Test compounds were prepared as 111× stocks in 100% DMSO. Kds were determined using an 11-point 3-fold compound dilution series with three DMSO control points. All compounds for Kd measurements are distributed by acoustic transfer (non-contact dispensing) in 100% DMSO. The compounds were then diluted directly into the assays such that the final concentration of DMSO was 0.9%. All reactions performed in polypropylene 384-well plates. Each was a final volume of 0.02 mL. Assays were incubated with shaking for 1 hour at room temperature. Then the beads were pelleted and washed with wash buffer (1×PBS, 0.05% Tween 20) to remove displaced kinase and test compound. The washed based were re-suspended in elution buffer (1×PBS, 0.05% Tween 20, 0.5 μM non-biotinylated affinity ligand) and incubated at room temperature with shaking for 30 minutes. The kinase concentration in the eluates was measured by qPCR. qPCR reactions were assembled by adding 2.5 μL of kinase eluate to 7.5 μL of qPCR master mix containing 0.15 μM amplicon primers and 0.15 μM amplicon probe. The qPCR protocol consisted of a 10 minute hot start at 95° C., followed by 35 cycles of 95° C. for 15 seconds, 60° C. for 1 minute.
Test compounds were prepared as 111× stocks in 100% DMSO. Kds were determined using an 11-point 3-fold compound dilution series with three DMSO control points. All compounds for Kd measurements are distributed by acoustic transfer (non-contact dispensing) in 100% DMSO. The compounds were then diluted directly into the assays such that the final concentration of DMSO was 0.9%. The Kds were determined using a compound top concentration of 30,000 nM. Kd measurements were performed in duplicate.
Binding constants (Kds) were calculated with a standard dose-response curve using the Hill equation: […]
The Hill Slope was set to −1. […]

Chain of human TYK2 (JH2domain-pseudokinase) (P29597 556-888): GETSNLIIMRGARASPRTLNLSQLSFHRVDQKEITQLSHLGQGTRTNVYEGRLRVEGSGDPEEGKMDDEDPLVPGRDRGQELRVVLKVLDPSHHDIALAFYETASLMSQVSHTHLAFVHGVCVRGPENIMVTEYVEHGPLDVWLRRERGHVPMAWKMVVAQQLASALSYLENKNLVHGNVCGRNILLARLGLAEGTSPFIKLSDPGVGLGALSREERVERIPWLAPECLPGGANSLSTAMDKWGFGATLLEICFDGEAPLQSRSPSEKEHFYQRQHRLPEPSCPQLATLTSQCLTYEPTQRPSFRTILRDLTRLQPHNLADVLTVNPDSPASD

| Kd | SMILES |
| --- | --- |
| 0.1 to 0.5 nM | CN=S(C)(=O)c1ccccc1Nc1cc(NC(=O)C2CC2)nc2[nH]c(C)nc12 (stereo in doubt) [I-548, (S)—N-(7-((2-(N,S-dimethylsulfonimidoyl)phenyl)amino)-2-methyl-3H-imidazo[4,5-b]pyridin-5-yl)cyclopropanecarboxamide] |
| < 0.1 nM | Cc1c(-c2ccc(Nc3cc(NC(=O)C4CC4)nc4[nH]c(C(F)F)nc34)c(S(C)(=O)=O)c2)cnn1C1CC1 [I-537, N-(7-((4-(1-cyclopropyl-5-methyl-1H-pyrazol-4-yl)-2-(methylsulfonyl)phenyl)amino)-2-(difluoromethyl)-3H-imidazo[4,5-b]pyridin-5-yl)cyclopropanecarboxamide] |
| 1 to 10 nM | CN=[S@@](C)(=O)c1ccccc1Nc1cc(NC(=O)C2CC2)nc2[nH]c(C)nc12 [I-549, N-(7-((2-(N,S-dimethylsulfonimidoyl)phenyl)amino)-2-methyl-3H-imidazo[4,5-b]pyridin-5-yl)cyclopropanecarboxamide] |
| 1 to 10 nM | Cc1nc2c(Nc3ccc(C4=NC(C)(C)CS4)cc3S(C)(=O)=O)cc(NC(=O)[C@H]3CC3(F)F)nc2[nH]1 [I-484, (R)—N-(7-((4-(4,4-dimethyl-4,5-dihydrothiazol-2-yl)-2-(methylsulfonyl)phenyl)amino)-2-methyl-3H-imidazo[4,5-b]pyridin-5-yl)-2,2-difluorocyclopropane-1-carboxamide] |
| 0.1 to 0.5 nM | Cc1nc2c(Nc3ccccc3S(C)(=O)=O)cc(Nc3cccc(C(F)(F)F)n3)nc2[nH]1 [I-600, 2-methyl-N7-(2-(methylsulfonyl)phenyl)-N5-(6-(trifluoromethyl)pyridin-2-yl)-3H-imidazo[4,5-b]pyridine-5,7-diamine] |
| 0.1 to 0.5 nM | Cn1cncc1-c1ccc(Nc2cc(NC(=O)[C@H]3C[C@H]3F)nc3[nH]c(C(F)F)nc23)c(S(C)(=O)=O)c1 [I-405, (1R,2R)—N-(2-(difluoromethyl)-7-((4-(1-methyl-1H-imidazol-5-yl)-2-(methylsulfonyl)phenyl)amino)-3H-imidazo[4,5-b]pyridin-5-yl)-2-fluorocyclopropane-1-carboxamide] |
| 1 to 10 nM | COc1c(Nc2cc(Nc3cccc(C(F)(F)F)n3)nc3[nH]c(C)nc23)cccc1-c1ncnn1C [I-627, N7-(2-methoxy-3-(1-methyl-1H-1,2,4-triazol-5-yl)phenyl)-2-methyl-N5-(6-(trifluoromethyl)pyridin-2-yl)-3H-imidazo[4,5-b]pyridine-5,7-diamine] |
| < 0.1 nM | C#Cc1cccc(Nc2cc(Nc3ccc(F)cc3S(C)(=O)=O)c3nc(C)[nH]c3n2)n1 [I-630, N5-(6-ethynylpyridin-2-yl)-N7-(4-fluoro-2-(methylsulfonyl)phenyl)-2-methyl-3H-imidazo[4,5-b]pyridine-5,7-diamine] |

More lines, now with the values behind:

| SMILES | Kd |
| --- | --- |
| Cc1cn(C)c(-c2ccc(Nc3cc(NC(=O)C4CC4)nc4[nH]c(C(F)F)nc34)c(N(C)S(C)(=O)=O)c2)n1 [I-175, N-(2-(difluoromethyl)-7-((4-(1,4-dimethyl-1H-imidazol-2-yl)-2-(N-methylmethylsulfonamido)phenyl)amino)-3H-imidazo[4,5-b]pyridin-5-yl)cyclopropane-Carboxamide] | 0.5 to 1 nM |
| COc1c(Nc2cc(NC(=O)C3CC3)nc3[nH]c(C(F)F)nc23)cccc1-c1nnn(C)n1 [I-14, N-(2-(difluoromethyl)-7-((2-methoxy-3-(2-methyl-2H-tetrazol-5-yl)phenyl)amino)-3H-imidazo[4,5-b]pyridin-5-yl)cyclopropanecarboxamide] | 0.1 to 0.5 nM |
| Cn1ccc(-c2ccc(Nc3cc(NC(=O)[C@@H]4C[C@@H]4F)nc4[nH]c(C(F)F)nc34)c(S(C)(=O)=O)c2)n1 [I-210, (1S,2S)—N-(2-(difluoromethyl)-7-((4-(1-methyl-1H-pyrazol-3-yl)-2-(methylsulfonyl)phenyl)amino)-3H-imidazo[4,5-b]pyridin-5-yl)-2-fluorocyclopropane-1-carboxamide] | 0.1 to 0.5 nM |
| CC1(C)CCC(c2ccc(Nc3cc(NC(=O)C4CC4)nc4[nH]c(C(F)F)nc34)c(S(C)(=O)=O)c2)O1 (centres unmarked) [I-332] | 0.1 to 0.5 nM |
| CC1(C)CC[C@@H](c2ccc(Nc3cc(NC(=O)C4CC4)nc4[nH]c(C(F)F)nc34)c(S(C)(=O)=O)c2)O1 [I-499, (S)—N-(2-(difluoromethyl)-7-((4-(5,5-dimethyltetrahydrofuran-2-yl)-2-(methylsulfonyl)phenyl)amino)-3H-imidazo[4,5-b]pyridin-5-yl)cyclopropanecarboxamide] | 1 to 10 nM |
| CS(=O)(=O)c1cc(C2COCCO2)ccc1Nc1cc(NC(=O)C2CC2)nc2[nH]c(C(F)F)nc12 (stereo in doubt) [I-613, (R)—N-(7-((4-(1,4-dioxan-2-yl)-2-(methylsulfonyl)phenyl)amino)-2-(difluoromethyl)-3H-imidazo[4,5-b]pyridin-5-yl)cyclopropanecarboxamide] | 0.1 to 0.5 nM |
| Cc1nc2c(Nc3ccc(-c4cncn4C)cc3N(C)S(C)(=O)=O)cc(NC(=O)[C@@H]3C[C@@H]3F)nc2[nH]1 [I-208, (1S,2S)-2-fluoro-N-(2-methyl-7-((4-(1-methyl-1H-imidazol-5-yl)-2-(N-methylmethylsulfonamido)phenyl)amino)-3H-imidazo[4,5-b]pyridin-5-yl)cyclopropane-1-carboxamide] | 1 to 10 nM |
| COc1c(Nc2cc(Nc3ccc(N4CCC4)cn3)nc3[nH]c(C(F)F)nc23)cccc1-c1ccn(C)n1 [I-31, N5-(5-(azetidin-1-yl)pyridin-2-yl)-2-(difluoromethyl)-N7-(2-methoxy-3-(1-methyl-1H-pyrazol-3-yl)phenyl)-3H-imidazo[4,5-b]pyridine-5,7-diamine] | 1 to 10 nM |
| Cc1nc2c(Nc3ccc(C4CCOCC4)cc3S(C)(=O)=O)cc(NC(=O)C3CC3)nc2[nH]1 [I-226, N-(2-methyl-7-((2-(methylsulfonyl)-4-(tetrahydro-2H-pyran-4-yl)phenyl)amino)-3H-imidazo[4,5-b]pyridin-5-yl)cyclopropanecarboxamide] | 0.1 to 0.5 nM |
| Cc1ncc(Nc2cc(Nc3ccc(-c4c(C)nn(C)c4C)cc3S(C)(=O)=O)c3nc(C(F)F)[nH]c3n2)nc1C [I-343] | 0.1 to 0.5 nM |
| CN(c1cc(-c2cnn(C)c2)ccc1Nc1cc(NC(=O)[C@H]2C[C@H]2F)nc2[nH]c(C(F)F)nc12)S(C)(=O)=O [I-236, (1R, 2R)—N-(2-(difluoromethyl)-7-((4-(1-methyl-1H-pyrazol-4-yl)-2-(N-methylmethylsulfonamido)phenyl)amino)-3H-imidazo[4,5-b]pyridin-5-yl)-2-fluorocyclopropane-1-carboxamide] | 0.1 to 0.5 nM |
| CS(=O)(=O)c1cc(Cl)ccc1Nc1cc(NC(=O)C2CC2)nc2[nH]c(C(F)F)nc12 [I-58, N-(7-((4-chloro-2-(methylsulfonyl)phenyl)amino)-2-(difluoromethyl)-3H-imidazo[4,5-b]pyridin-5-yl)cyclopropanecarboxamide] | 0.5 to 1 nM |
| COC1CN(c2ccc(Nc3cc(NC(=O)C4CC4)nc4[nH]c(C)nc34)c(N(C)S(C)(=O)=O)c2)C1 [I-122, N-(7-((4-(3-methoxyazetidin-1-yl)-2-(N-methylmethylsulfonamido)phenyl)amino)-2-methyl-3H-imidazo[4,5-b]pyridin-5-yl)cyclopropanecarboxamide] | 1 to 10 nM |
| Cn1cnc(-c2ccc(Nc3cc(NC(=O)[C@H]4C[C@H]4F)nc4[nH]c(C(F)F)nc34)c(S(C)(=O)=O)c2)c1 [I-301, (1R,2R)—N-(2-(difluoromethyl)-7-((4-(1-methyl-1H-imidazol-4-yl)-2-(methylsulfonyl)phenyl)amino)-3H-imidazo[4,5-b]pyridin-5-yl)-2-fluorocyclopropane-1-carboxamide] | 0.1 to 0.5 nM |
| CN=[S@@](C)(=O)c1ccccc1Nc1cc(NC(=O)C2CC2)nc2[nH]c(C(F)F)nc12 [I-396] | 1 to 10 nM |
